Key:
[1] = target: T1, β5i subunit of isolated human 20S proteasome (Homo sapiens, UniProt P28062); experiment: Proteasome inhibition assay (20 S Proteasome Assay Kit, Suc‐LLVY‐AMC); type: biochemical; conditions: for inhibition at 1 µM: c = 1 µM, n=1, read-out: Inhibition iCP β5; for inhibition at 0.1 µM: c=100 nM, read-out: Rel. Inhibition β5i
T1 construct: purchased Enzo Life Sciences
Method: (§1) Proteasome inhibition assay. […] The 20 S Proteasome Assay Kit for Drug Discovery was used according to the supplier's protocol using Suc‐LLVY‐AMC (β5), Bz‐VGR‐AMC (β2) or Z‐LLE‐AMC (β1) as substrates (Enzo Life Sciences). Single point measurements of residual activity of proteasome activity were performed at a final concentration of 100 nM (n=3, β5c, β5i) or 1 μM (n=1, β1c, β2c, β5c, β5i, SI chapter 2a, Table S1). […] Inhibitors were prepared in 2‐fold concentration (cfinal=100 nM) and added to proteasomes (mfinal=200 ng/well). After 30 min incubation, substrate was added (cfinal=100 μM), incubated for 60 minutes and fluorescence was read using a Tecan M1000 microplate reader. […] IC50 values were determined from technical duplicates as mean value of three independent experiments.

[2] = target: T2, β5c subunit of isolated human 20S proteasome (Homo sapiens, UniProt P28074); experiment: as above; type: biochemical; conditions: for inhibition at 1 µM: c = 1 µM, n=1, read-out: Inhibition cCP β5; for inhibition at 0.1 µM: c=100 nM, read-out: Rel. Inhibition β5c
T2 construct: purchased Enzo Life Sciences
Method: as §1

Danio rerio embryos [3] = experiment: Danio rerio embryo toxicity assay (not dechorionated); type: in vivo
Method: Danio rerio embryo toxicity assay. Fish keeping protocols are approved by the Darmstadt administrative authority and documented. All fish were treated humanely. […] Embryos were decollated into separate wells containing a total volume of 200 μL and the inhibitor at the given concentration.

[4] = target: T3, β2c subunit of isolated human 20S proteasome (Homo sapiens, UniProt Q99436); experiment: Proteasome inhibition assay (20 S Proteasome Assay Kit, Bz‐VGR‐AMC); type: biochemical; conditions: c = 1 µM, n=1; read-out: Inhibition cCP β2
T3 construct: purchased Enzo Life Sciences
Method: Proteasome inhibition assay. Bortezomib (Selleckchem) and carfilzomib (MedChemExpress) were purchased and used without further purification. The 20 S Proteasome Assay Kit for Drug Discovery was used according to the supplier's protocol using Suc‐LLVY‐AMC (β5), Bz‐VGR‐AMC (β2) or Z‐LLE‐AMC (β1) as substrates (Enzo Life Sciences). Single point measurements of residual activity of proteasome activity were performed at a final concentration of 100 nM (n=3, β5c, β5i) or 1 μM (n=1, β1c, β2c, β5c, β5i, SI chapter 2a, Table S1). […] Inhibitors were prepared in 2‐fold concentration (cfinal=100 nM) and added to proteasomes (mfinal=200 ng/well). After 30 min incubation, substrate was added (cfinal=100 μM), incubated for 60 minutes and fluorescence was read using a Tecan M1000 microplate reader. Dose‐response curves were fitted to the equation Y=100/(1+10^((L°^gIC50−X)*HillSl°^pe)) using GraphPad Prism 7.02. IC50 values were determined from technical duplicates as mean value of three independent experiments.

MV4‐11 cells = experiment: Cell viability endpoint assay (Celltiter Blue, 72 h); type: cell-based; conditions: for IC50: Homo sapiens, MV4-11, mean±SD from two independent experiments
Method: Cell lines. MV4‐11 (ACC 102), Jurkat (ACC 282) and THP‐1 (ACC 16) cells were obtained from DSMZ and maintained at 37 °C and 5 % CO2 at densities between 0.2–1×10^6 cells per mL in RMPI‐1640 medium supplemented with 10 % FBS, L‐glutamine (2 mM) and penicillin/streptomycin.
Cell viability endpoint assay. For the determination of cytotoxicity of proteasome inhibitors 50.000 cells per well were plated in 90 μl RPMI‐1640 medium supplemented with 0.1 % FBS and incubated overnight at 37 °C and 5 % CO2. Inhibitors were serially diluted in RPMI‐1640 medium as 10‐fold stocks and added to cells giving the final concentration (1 nM to 10 μM, Figure S2–S4) and incubated for 72 h at 37 °C and 5 % CO2. Cell viability was determined using the Celltiter Blue assay (Promega) by adding 20 μl of reagent, incubation for 120 minutes at 37 °C and 5 % CO2 and fluorescent read‐out using a Tecan M1000 microplate reader. Dose‐response curves were fitted to the equation “Y=Bottom+(Top‐Bottom)/(1+10^(X−L°^gIC50))” using GraphPad Prism 7.02. IC50 values are determined from technical triplicates as mean value of two independent experiments. Standard deviations (Table S1) as well as dose response curves (SI chapter 2b) are given in the supplementary information.

[5] = target: T4, β1c subunit of isolated human 20S proteasome (Homo sapiens, UniProt P28072); experiment: Proteasome inhibition assay (20 S Proteasome Assay Kit, Z‐LLE‐AMC); type: biochemical; conditions: c = 1 µM, n=1; read-out: Inhibition cCP β1
T4 construct: purchased Enzo Life Sciences
Method: as §1

Danio rerio embryos [6] = experiment: Danio rerio escape response (neurotoxicity) assay, dechorionated embryos; type: in vivo; conditions: for C-Bend Amplitude, Difference between means / C-Bend duration, Difference between means / Number of movements per 100 ms, Difference between means / Number of total movements, Difference between means: versus control
Method: Danio rerio escape response assay. 24 hours past fertilization embryos were dechorionated and transferred into 96‐well plates containing 198 μL of E3 media at 26 °C. […] Incubation times were 24 h, 48 h and 72 h. Survival of the embryos was determined by visual analysis of heart‐beat. For recording the touch evoked escape response, embryos were transferred to a microscopy slide with cavity that is placed on a SL‐300 LED Soft Light (Dörr, Neu‐Ulm, Germany) under a MotionBlitz EoSens mini1‐1 MC1370 high speed camera (Mikrotron, Unterschleißheim, Germany, Figure S18). An escape response was triggered by a touch stimulus at the trunk of embryos using a small sewing needle, which is slightly blunted. For each embryo, a maximum of 50 stimuli was applied. […] No escape response was determined if only one embryo was alive at 96 hpf. Movement was recorded at 96 hpf at 500 frames per second for 3 seconds using the MotionBlitzDirector 2 software. Determination of the amplitude α defined by the body angle spanned between the head, yolk and tail using a MATLAB‐based software tool and plotted using GraphPad Prism 7.02.

[7] = 25 μM, 24 h, listed as bortezomib
[8] = 25 μM, 48 h, listed as bortezomib
[9] = 50 μM, 24 h, listed as bortezomib

## CC(C)C[C@H](NC(=O)[C@H](Cc1ccccc1)NC(=O)c1cnccn1)B(O)O [Bortezomib 1, Bortezomib, reference compound]
[1]
  inhibition at 1 µM: 98%
  inhibition at 0.1 µM: 85%
[2]
  inhibition at 1 µM: 98%
  inhibition at 0.1 µM: 89%
Danio rerio embryos [3]; 1 µM, 24 h
  Survival of embryos (not dechorionated): 100%
Danio rerio embryos [3]; 1 µM, 48 h
  Survival of embryos (not dechorionated): 100%
Danio rerio embryos [3]; 1 µM, 72 h
  Survival of embryos (not dechorionated): 100%
Danio rerio embryos [3]; 1 µM, 96 h
  Survival of embryos (not dechorionated): 100%
Danio rerio embryos [3]; 5 µM, 24 h
  Survival of embryos (not dechorionated): 100%
Danio rerio embryos [3]; 5 µM, 48 h
  Survival of embryos (not dechorionated): 100%
Danio rerio embryos [3]; 5 µM, 72 h
  Survival of embryos (not dechorionated): 100%
Danio rerio embryos [3]; 5 µM, 96 h
  Survival of embryos (not dechorionated): 80%
Danio rerio embryos [3]; 10 µM, 24 h
  Survival of embryos (not dechorionated): 100%
Danio rerio embryos [3]; 10 µM, 48 h
  Survival of embryos (not dechorionated): 100%
Danio rerio embryos [3]; 10 µM, 72 h
  Survival of embryos (not dechorionated): 100%
Danio rerio embryos [3]; 10 µM, 96 h
  Survival of embryos (not dechorionated): 100%
Danio rerio embryos [3]; 25 µM, 24 h
  Survival of embryos (not dechorionated): 100%
Danio rerio embryos [3]; 25 µM, 48 h
  Survival of embryos (not dechorionated): 100%
Danio rerio embryos [3]; 25 µM, 72 h
  Survival of embryos (not dechorionated): 100%
Danio rerio embryos [3]; 25 µM, 96 h
  Survival of embryos (not dechorionated): 80%
[4]
  inhibition at 1 µM: 5%
MV4‐11 cells
  IC50: 34 ± 5 nM
[5]
  inhibition at 1 µM: 80%
Danio rerio embryos [6]; 25 µM, 24 h
  Reflex Duration: 540,2 ± 136,6 ms
  mean reflexes per stimuli: 8%
  C-Bend Amplitude, Difference between means: 2,556 ± 25,09
  C-Bend duration, Difference between means: 13 ± 6,633
  Number of movements per 100 ms, Difference between means: -1,559 ± 0,4739
Danio rerio embryos [6]; 25 μM, 24 h, listed as 1
  C-Bend Amplitude: 131,6 ± 21,3 °
  C-Bend Duration: 32,67 ± 6,489 ms
  Number of movements: 11,56 ± 3,33
  Number of movements per 100 ms: 1,916 ± 0,3504
Danio rerio embryos [6]; [7]
  C-Bend Amplitude: 131.6±21.3 °
  C-Bend Duration: 32.7 ± 6.5 ms
  Number of movements per 100 ms: 1.92±0.35
Danio rerio embryos [6]; 25 µM, 48 h
  Reflex Duration: 289,3 ± 198,9 ms
  mean reflexes per stimuli: 2%
  C-Bend Amplitude, Difference between means: -122,1 ± 14,37
  Number of movements per 100 ms, Difference between means: -3,231 ± 0,3577
  Number of total movements, Difference between means: -10,89 ± 3,622
Danio rerio embryos [6]; 25 μM, 48 h, listed as 1
  C-Bend Amplitude: 6,889 ± 5,549 °
  C-Bend Duration: 8,222 ± 6,654 ms
  Number of movements: 3,222 ± 2,259
  Number of movements per 100 ms: 0,2435 ± 0,1615
Danio rerio embryos [6]; [8]
  C-Bend Amplitude: 6.9±5.6 °
  Number of movements per 100 ms: 0.24±0.32
Danio rerio embryos [6]; 50 μM, 24 h
  Number of movements per 100 ms: 0±0
  Reflex Duration: 0 ± 0 ms
Danio rerio embryos [6]; 50 μM, 24 h, 50 stimuli per embryo, 150 stimuli total
  responses to touch stimuli: 0
Danio rerio embryos [6]; 50 μM, 24 h, listed as 1
  C-Bend Amplitude: 0 ± 0 °
  C-Bend Duration: 0 ± 0 ms
  Number of movements: 0 ± 0
Danio rerio embryos [6]; [9]
  C-Bend Amplitude: 0±0 °
  C-Bend Duration: 0 ± 0 ms
  Number of movements: 0
Danio rerio embryos [6]; 50 µM, 24 h
  C-Bend Amplitude, Difference between means: -129 ± 13,26
  C-Bend duration, Difference between means: -19,67 ± 1,374
  Number of movements per 100 ms, Difference between means: -3,475 ± 0,3192
  Number of total movements, Difference between means: -14,11 ± 2,831
Danio rerio embryos [6]; dechorionated embryos
  overall survival at low doses: 92%
Danio rerio embryos [6]; dechorionated, 25 µM, 24 h
  Survived (embryos of 4): 4
Danio rerio embryos [6]; dechorionated, 25 µM, 48 h
  Survived (embryos of 4): 3
Danio rerio embryos [6]; dechorionated, 50 µM, 24 h
  Survived (embryos of 4): 4
Danio rerio embryos [6]; dechorionated, 50 μM 48 h to 72 h and 25 μM 72 h
  treated embryos dead: 100%

## CC(C)C[C@@H](C=O)NC(=O)[C@H](CC(C)C)NC(=O)[C@H](CC(C)C)NC(=O)Cn1cnc2ccccc2c1=O [Compound 22, (S)‐4‐Methyl‐N‐((S)‐4‐methyl‐1‐(((S)‐4‐methyl‐1‐oxopentan‐2‐yl)amino)‐1‐oxopentan‐2‐yl)‐2‐(2‐(4‐oxoquinazolin‐3(4H)‐yl)acetamido)pentanamide]
[1]
  inhibition at 1 µM: 28%
  inhibition at 0.1 µM: 11%
[2]
  inhibition at 1 µM: 43%
  inhibition at 0.1 µM: 6%
[4]
  inhibition at 1 µM: -10%
MV4‐11 cells
  IC50: > 1000 nM
MV4‐11 cells; mean±SD from two independent experiments
  IC50 MV4‐11: inactive
[5]
  inhibition at 1 µM: 28%

## CC(C)C[C@@H](C=O)NC(=O)[C@H](CC(=O)OC(C)(C)C)NC(=O)[C@H](CC(C)C)NC(=O)c1cc(Cl)ccc1Cl [Compound 25, tert ‐Butyl (S)‐3‐((S)‐2‐(2,5‐dichlorobenzamido)‐4‐methylpentanamido)‐4‐(((S)‐4‐methyl‐1‐oxopen‐tan‐2‐yl)amino)‐4‐oxobutanoate]
[1]
  inhibition at 1 µM: 75%
  inhibition at 0.1 µM: 38%
[2]
  inhibition at 1 µM: 90%
  inhibition at 0.1 µM: 64%
[4]
  inhibition at 1 µM: 10%
MV4‐11 cells
  IC50: 28 ± 5 nM
[5]
  inhibition at 1 µM: 9%

Source: publication PMC6916368, “Cell‐Based Optimization of Covalent Reversible Ketoamide Inhibitors Bridging the Unprimed to the Primed Site of the Proteasome β5 Subunit” (Chemmedchem, 2019)
